Molecular target: T1, full-length ATR (Homo sapiens, UniProt Q13535)
T1 construct: in the presence of 5 nM full-length ATR
Assay: ATR Inhibition Assay (radioactive-phosphate incorporation)
Assay type: biochemical
Settings: Ki(app); 5 nM full-length ATR, 10 μM ATP, 800 μM target peptide, 25° C.
Experimental: Test compounds were screened for their ability to inhibit ATR kinase using a radioactive-phosphate incorporation assay. Assays were carried out in a mixture of 50 mM
Tris/HCl (pH 7.5), 10 mM MgCl2 and 1 mM DTT. Final substrate concentrations were 10 μM [γ-33P]ATP (3 mCi 33 P ATP/mmol ATP, Perkin Elmer) and 800 μM target peptide ([…]). Assays were carried out at 25° C. in the presence of 5 nM full-length ATR. An assay stock buffer solution was prepared containing all of the reagents listed above, with the exception of ATP and the test compound of interest. […] The plate was pre-incubated for 10 minutes at 25° C. and the reaction initiated by addition of 15 μL [γ-33P]ATP (final concentration 10 μM).
The reaction was stopped after […] by the addition of 30 μL 0.1M phosphoric acid containing 2 mM ATP. A multiscreen phosphocellulose filter 96-well plate (Millipore, Cat no. MAPHN0B50) was pretreated with 100 μL 0.2M phosphoric acid prior to the addition of 45 μL of the stopped assay mixture. The plate was washed with 5×200 μL 0.2M phosphoric acid.
After removing mean background values for all of the data points, Ki(app) data were calculated from non-linear regression analysis of the initial rate data using the Prism software package (GraphPad Prism version 3.0cx for Macintosh, GraphPad Software, San Diego Calif., USA).

T1 sequence (Q13535 whole entry): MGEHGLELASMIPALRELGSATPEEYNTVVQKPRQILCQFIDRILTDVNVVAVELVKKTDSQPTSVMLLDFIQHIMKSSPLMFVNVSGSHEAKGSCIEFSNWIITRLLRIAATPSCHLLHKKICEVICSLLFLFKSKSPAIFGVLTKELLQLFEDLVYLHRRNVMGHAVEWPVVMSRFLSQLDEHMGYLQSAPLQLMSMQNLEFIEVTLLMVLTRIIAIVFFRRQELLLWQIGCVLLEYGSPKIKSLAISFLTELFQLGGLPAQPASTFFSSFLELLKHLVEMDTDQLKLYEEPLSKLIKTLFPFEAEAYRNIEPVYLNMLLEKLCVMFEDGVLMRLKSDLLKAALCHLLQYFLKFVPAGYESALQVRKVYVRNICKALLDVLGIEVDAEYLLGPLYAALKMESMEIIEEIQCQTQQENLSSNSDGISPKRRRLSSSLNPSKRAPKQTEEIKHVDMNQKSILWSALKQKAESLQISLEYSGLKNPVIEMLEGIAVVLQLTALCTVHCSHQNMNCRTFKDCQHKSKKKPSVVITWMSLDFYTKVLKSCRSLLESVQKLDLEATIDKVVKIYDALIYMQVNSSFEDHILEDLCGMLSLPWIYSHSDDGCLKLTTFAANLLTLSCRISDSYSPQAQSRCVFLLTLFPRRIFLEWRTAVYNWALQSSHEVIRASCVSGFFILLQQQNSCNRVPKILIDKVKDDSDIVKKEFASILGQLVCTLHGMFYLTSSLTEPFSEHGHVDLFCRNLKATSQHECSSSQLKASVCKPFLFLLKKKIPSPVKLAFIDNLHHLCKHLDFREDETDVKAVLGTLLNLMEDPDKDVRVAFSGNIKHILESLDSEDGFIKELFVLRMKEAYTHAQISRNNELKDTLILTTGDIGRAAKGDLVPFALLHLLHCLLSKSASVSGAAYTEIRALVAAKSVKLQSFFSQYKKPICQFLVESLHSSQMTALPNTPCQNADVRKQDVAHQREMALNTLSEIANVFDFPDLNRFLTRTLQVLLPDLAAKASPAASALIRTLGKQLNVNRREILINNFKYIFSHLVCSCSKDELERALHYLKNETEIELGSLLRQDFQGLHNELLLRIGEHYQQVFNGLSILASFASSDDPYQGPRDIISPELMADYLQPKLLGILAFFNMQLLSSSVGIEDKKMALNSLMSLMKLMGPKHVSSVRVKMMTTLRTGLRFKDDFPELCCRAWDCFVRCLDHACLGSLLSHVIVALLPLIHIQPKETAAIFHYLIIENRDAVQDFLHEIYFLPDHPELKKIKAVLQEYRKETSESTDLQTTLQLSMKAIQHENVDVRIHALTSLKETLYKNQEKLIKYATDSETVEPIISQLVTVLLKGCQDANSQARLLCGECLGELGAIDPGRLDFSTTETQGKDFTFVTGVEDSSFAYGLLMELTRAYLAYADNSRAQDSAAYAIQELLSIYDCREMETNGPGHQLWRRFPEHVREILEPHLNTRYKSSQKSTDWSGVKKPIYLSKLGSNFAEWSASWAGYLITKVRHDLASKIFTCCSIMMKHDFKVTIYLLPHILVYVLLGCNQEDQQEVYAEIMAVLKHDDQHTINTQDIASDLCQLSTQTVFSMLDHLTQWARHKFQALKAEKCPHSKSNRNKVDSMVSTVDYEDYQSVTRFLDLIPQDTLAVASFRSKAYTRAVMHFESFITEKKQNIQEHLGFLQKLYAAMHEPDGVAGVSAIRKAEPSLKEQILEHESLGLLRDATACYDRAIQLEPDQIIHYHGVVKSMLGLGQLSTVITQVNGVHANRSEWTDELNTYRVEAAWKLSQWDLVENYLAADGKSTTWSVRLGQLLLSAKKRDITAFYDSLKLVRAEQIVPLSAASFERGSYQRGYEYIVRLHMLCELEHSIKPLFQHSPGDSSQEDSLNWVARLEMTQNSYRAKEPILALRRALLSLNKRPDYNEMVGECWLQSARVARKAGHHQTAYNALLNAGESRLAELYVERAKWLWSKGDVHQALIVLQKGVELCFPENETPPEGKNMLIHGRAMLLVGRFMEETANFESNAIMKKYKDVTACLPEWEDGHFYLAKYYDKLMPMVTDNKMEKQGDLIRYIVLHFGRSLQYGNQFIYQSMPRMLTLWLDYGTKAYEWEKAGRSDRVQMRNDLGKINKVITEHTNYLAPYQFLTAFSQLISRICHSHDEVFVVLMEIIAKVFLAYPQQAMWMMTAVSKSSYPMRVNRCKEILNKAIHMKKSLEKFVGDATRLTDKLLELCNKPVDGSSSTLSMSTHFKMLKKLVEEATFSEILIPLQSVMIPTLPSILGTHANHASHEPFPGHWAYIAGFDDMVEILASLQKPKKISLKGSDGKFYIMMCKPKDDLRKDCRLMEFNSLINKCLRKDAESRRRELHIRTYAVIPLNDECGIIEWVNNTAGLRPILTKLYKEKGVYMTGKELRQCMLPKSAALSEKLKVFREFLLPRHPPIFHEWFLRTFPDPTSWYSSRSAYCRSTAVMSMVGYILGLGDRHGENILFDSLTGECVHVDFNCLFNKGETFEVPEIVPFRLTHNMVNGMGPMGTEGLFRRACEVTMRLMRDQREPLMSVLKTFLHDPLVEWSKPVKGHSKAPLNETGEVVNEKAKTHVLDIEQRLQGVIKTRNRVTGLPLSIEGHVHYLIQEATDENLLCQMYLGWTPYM

Compound | Ki [nM]
Cc1ccc2nc(-c3nc(N4CCN(c5ncccn5)CC4)cnc3N)[nH]c2c1 [Compound I-35, 3-(6-methyl-1H-benzo[d]imidazol-2-yl)-5-(4-(pyrimidin-2-yl)piperazin-1-yl)pyrazin-2-amine] | 1000 to 10000
Nc1ncc(N2CCN(S(=O)(=O)C3CCCC3)CC2)nc1C(=O)Nc1ccccn1 [Compound I-248, 3-amino-6-(4-(cyclopentylsulfonyl)piperazin-1-yl)-N-(pyridin-2-yl)pyrazine-2-carboxamide] | 100 to 1000
Cc1ccc2nc(-c3nc(N4CCN(c5ccccc5F)CC4)cnc3N)[nH]c2c1 [Compound I-45, 5-(4-(2-fluorophenyl)piperazin-1-yl)-3-(6-methyl-1H-benzo[d]imidazol-2-yl)pyrazin-2-amine] | 1000 to 10000
CCS(=O)(=O)N1CCN(c2cnc(N)c(-c3noc(C)n3)n2)CC1 [Compound I-38, 5-(4-(ethylsulfonyl)piperazin-1-yl)-3-(5-methyl-1,2,4-oxadiazol-3-yl)pyrazin-2-amine] | 1000 to 10000
Nc1ncc(N2CCN(S(=O)(=O)Cc3ccccc3)CC2)nc1C(=O)Nc1ccccn1 [Compound I-253, 3-amino-6-(4-(benzylsulfonyl)piperazin-1-yl)-N-(pyridin-2-yl)pyrazine-2-carboxamide] | 100 to 1000
CCCS(=O)(=O)N1CCN(c2cnc(N)c(C(=O)Nc3ccccn3)n2)CC1 [Compound I-240, 3-amino-6-(4-(propylsulfonyl)piperazin-1-yl)-N-(pyridin-2-yl)pyrazine-2-carboxamide] | 100 to 1000
CCS(=O)(=O)N1CC=C(c2cnc(N)c(C(=O)Nc3cnccn3)n2)CC1 [Compound I-170, 3-amino-6-(1-(ethylsulfonyl)-1,2,3,6-tetrahydropyridin-4-yl)-N-(pyrazin-2-yl)pyrazine-2-carboxamide] | 100 to 1000
COC(=O)N1CCN(c2cnc(N)c(C(=O)Nc3ccccn3)n2)CC1 [Compound I-242, methyl 4-(5-amino-6-(pyridin-2-ylcarbamoyl)pyrazin-2-yl)piperazine-1-carboxylate] | 1000 to 10000
Cc1ccc2nc(-c3nc(N4CCN(c5nccs5)CC4)cnc3N)[nH]c2c1 [Compound I-46, 3-(6-methyl-1H-benzo[d]imidazol-2-yl)-5-(4-(thiazol-2-yl)piperazin-1-yl)pyrazin-2-amine] | 100 to 1000
Nc1ncc(C2=CCN(S(=O)(=O)C3CC3)CC2)nc1-c1nc2ccccc2[nH]1 [Compound I-93, 3-(1H-benzo[d]imidazol-2-yl)-5-(1-(cyclopropylsulfonyl)-1,2,3,6-tetrahydropyridin-4-yl)pyrazin-2-amine] | < 100
Nc1ncc(N2CCN(C(=O)c3cccnc3)CC2)nc1C(=O)Nc1ccccn1 [Compound I-146, 3-amino-N-(pyridin-2-yl)-6-(4-(pyridine-3-carbonyl)piperazin-1-yl)pyrazine-2-carboxamide] | 1000 to 10000

Now from value to molecule:

Ki [nM] | Compound
100 to 1000 | CCS(=O)(=O)N1CC=C(c2cnc(N)c(-c3nc4ccc(C)c(C)c4[nH]3)n2)CC1 [Compound I-152, 3-(6,7-dimethyl-1H-benzo[d]imidazol-2-yl)-5-(1-(ethylsulfonyl)-1,2,3,6-tetrahydropyridin-4-yl)pyrazin-2-amine]
< 100 | Nc1ncc(C2=CCN(C(=O)c3ccccn3)CC2)nc1-c1nnc(-c2ccccc2)o1 [Compound I-132, (4-(5-amino-6-(5-phenyl-1,3,4-oxadiazol-2-yl)pyrazin-2-yl)-5,6-dihydropyridin-1(2H)-yl)(pyridin-2-yl)methanone]
100 to 1000 | CNCc1ccc(-c2nnc(-c3nc(N4CCC(N5CCCC5=O)CC4)cnc3N)o2)cc1 [Compound I-364, 1-(1-(5-Amino-6-(5-(4-((methylamino)methyl)phenyl)-1,3,4-oxadiazol-2-yl)pyrazin-2-yl)piperidin-4-yl)pyrrolidin-2-one]
100 to 1000 | CCS(=O)(=O)N1CCN(c2cnc(N)c(-c3nnc(-c4cccs4)o3)n2)CC1 [Compound I-312, 5-(4-ethylsulfonylpiperazin-1-yl)-3-[5-(2-thienyl)-1,3,4-oxadiazol-2-yl]pyrazin-2-amine]
100 to 1000 | CS(=O)(=O)CCN1CCN(c2cnc(N)c(-c3nnc(-c4ccccc4)o3)n2)CC1 [Compound I-296, 5-[4-(2-methylsulfonylethyl)piperazin-1-yl]-3-(5-phenyl-1,3,4-oxadiazol-2-yl)pyrazin-2-amine]
1000 to 10000 | Cc1ccc2nc(-c3nc(N4CCn5cnnc5C4)cnc3N)[nH]c2c1 [Compound I-281, 5-(5,6-dihydro-[1,2,4]triazolo[4,3-a]pyrazin-7(8H)-yl)-3-(6-methyl-1H-benzo[d]imidazol-2-yl)pyrazin-2-amine]
1000 to 10000 | COC(=O)N1CCN(c2cnc(N)c(-c3nc4ccccc4[nH]3)n2)CC1 [Compound I-268, methyl 4-(5-amino-6-(1H-benzo[d]imidazol-2-yl)pyrazin-2-yl)piperazine-1-carboxylate]
100 to 1000 | CCC(=O)N1C[C@@H]2C[C@@H]1CN2c1cnc(N)c(-c2nnc(-c3ccc(CNC)cc3)o2)n1 [Compound I-334, 1-[(1S,4R)-2-[5-Amino-6-[5-[4-(methylaminomethyl)phenyl]-1,3,4-oxadiazol-2-yl]pyrazin-2-yl]-2,5-diazabicyclo[2.2.1]heptan-5-yl]propan-1-one]
100 to 1000 | CCNC(=O)[C@H]1CCCN1c1cnc(N)c(-c2nnc(-c3ccc(CNC)cc3)o2)n1 [Compound I-357, (2R)-1-[5-Amino-6-[5-[4-(methylaminomethyl)phenyl]-1,3,4-oxadiazol-2-yl]pyrazin-2-yl]-N-ethyl-pyrrolidine-2-carboxamide]
100 to 1000 | CCS(=O)(=O)N1CCN(c2cnc(N)c(-c3nc4cccnc4[nH]3)n2)CC1 [Compound I-56, 5-(4-(ethylsulfonyl)piperazin-1-yl)-3-(3H-imidazo[4,5-b]pyridin-2-yl)pyrazin-2-amine]
< 100 | CC(=O)N1CC=C(c2cnc(N)c(-c3nnc(-c4ccccc4)o3)n2)CC1 [Compound I-125, 1-(4-(5-amino-6-(5-phenyl-1,3,4-oxadiazol-2-yl)pyrazin-2-yl)-5,6-dihydropyridin-1(2H)-yl)ethanone]
100 to 1000 | CC(C)(C)C(=O)N1CC=C(c2cnc(N)c(-c3nc4ccccc4[nH]3)n2)CC1 [Compound I-214, 1-(4-(5-amino-6-(1H-benzo[d]imidazol-2-yl)pyrazin-2-yl)-5,6-dihydropyridin-1(2H)-yl)-2,2-dimethylpropan-1-one]
100 to 1000 | CNCc1ccc(-c2nnc(-c3nc(N4CCC[C@H]4C)cnc3N)o2)cc1 [Compound I-362, 3-[5-[4-(Methylaminomethyl)phenyl]-1,3,4-oxadiazol-2-yl]-5-[(2R)-2-methylpyrrolidin-1-yl]pyrazin-2-amine]
100 to 1000 | CC(C)C(=O)N1CC=C(c2cnc(N)c(-c3nc4ccccc4[nH]3)n2)CC1 [Compound I-293, 1-[4-[5-amino-6-(1H-benzimidazol-2-yl)pyrazin-2-yl]-3,6-dihydro-2H-pyridin-1-yl]-2-methyl-propan-1-one]
< 100 | Nc1ncc(C2=CCN(S(=O)(=O)Cc3ccccc3)CC2)nc1-c1nnc(-c2ccccc2)o1 [Compound I-100, 5-(1-(benzylsulfonyl)-1,2,3,6-tetrahydropyridin-4-yl)-3-(5-phenyl-1,3,4-oxadiazol-2-yl)pyrazin-2-amine]

From patent publication US8410112B2, “Compounds useful as inhibitors of ATR kinase” (Vertex Pharmaceuticals Incorporated, priority 2008, dated 2013)
